Measurements taken from article PMC10989010, “A panel of janus kinase inhibitors identified with anti-inflammatory effects protect mice from lethal influenza virus infection” (Antimicrobial Agents and Chemotherapy, 2024).
Where a name gives a salt, the structure may show the parent alone.

Columns and labels:
lung tissues = test: Lung tissues histopathology (HE staining) of infected mice; format: in vivo; conditions: 300 TCID50; 20 mg/kg/d; day 7 p.i.
Method: The H&E staining experiments were performed according to the previous report ([46]). Briefly, all the mouse lung tissues were fixed in 4% paraformaldehyde overnight, embedded in paraffin, and cut into 4 µm sections. The sections were stained with hematoxylin solution, treated with hematoxylin differentiation solution and hematoxylin Scott’s tap water bluing, and rinsed with tap water. The sections were dehydrated in 85% ethanol for 5 minutes, followed by 5 minutes in 95% ethanol, and stained with eosin dye for 5 minutes. After dehydration, all the sections were sealed with neutral gum. Each section was examined under the microscope. The slides were randomly read and reviewed for tissue damage, necrosis, and inflammatory cell infiltration.

IL-8 = test: U937 cell-based anti-inflammatory assay for influenza virus infection, IL-8 production (AlphaLISA); design: species or system human; conditions: Homo sapiens, U-937, 72 h, read-out: IC50 IL-8
Method: U937 cells were seeded in a 96-well culture plate at a density of 1.5 × 10^5 cells per well and incubated for 24 hours prior to virus infection. Subsequently, the cells in each well were infected with the PR8 virus at a multiplicity of infection of 0.05 and treated with serially diluted drugs or left untreated as a control. The drugs were serially diluted threefold, starting from an initial concentration of 200 µM down to 0.01 µM. […] Following this incubation, the supernatants were collected and subjected to AlphaLISA analysis to determine IL-8, IP-10, and MCP1 protein levels.
The AlphaLISA detection kits employed in this study were IL-8 (PerkinElmer AL224), IP-10 (PerkinElmer AL259), and MCP1 (PerkinElmer, AL244). U937 cell culture supernatants were measured for IL-8, IP-10, and MCP-1 protein levels using AlphaLISA assay as per the manufacturer’s recommendations. The ELISA and AlphaLISA plates were read using the Varioskan LUX multimode microplate reader (Thermo Scientiﬁc, Waltham, MA, USA).

[1] = test system: TNF-α, RANTES, IP-10, IL-10, MIP-1α, IL-8, MCP-1, and IL-6; test: ELISA of pro-inflammatory cytokines and chemokines in BALF of infected mice; format: in vivo; conditions: 300 TCID50; 20 mg/kg/d; day 7 p.i.; versus placebo
Method: Mouse IL-10 (Cat. No. 431414), IL-6 (Cat. No. 431304), and TNF-α (Cat. No. 430901) ELISA kits were obtained from BioLegend (San Diego, USA). Mouse IL-8 (CME0008), MCP-1 (CME0046), and IP-10 (CME0051) ELISA kits were purchased from 4A Biotech (Beijing, China). Mouse CCL3/MIP-1α (EK261/2-96) ELISA kit was bought from Multi Sciences (Hangzhou, China). Mouse CCL5/RANTES (BSEM-048–96T) ELISA kit was obtained from Biosharp (Hefei, China). The ELISA was conducted by following the manufacturer’s instructions.

CNS(=O)(=O)C[C@H]1CC[C@H](N(C)c2ncnc3[nH]ccc23)CC1 [Oclacitinib maleate]
lung histopathology (HE staining) (lung tissues): remained primarily intact, with fewer inflammatory cells present
IC50 (IL-8): 50 nM
production of all eight cytokines and chemokines (TNF-α, RANTES, IP-10, IL-10, MIP-1α, IL-8, MCP-1, IL-6) in BALF [1]: significantly reduced
